Experimental data as given in ChEMBL document CHEMBL4270551, “Biological evaluation and structure-activity relationships of imidazole-based compounds as antiprotozoal agents” (Eur J Med Chem, 2018).
The source made the active and inactive calls. The rule behind the calls is not given here.

Experiments:
[1] = test system: Plasmodium falciparum; experiment: Antiprotozoal activity against erythrocytic stage of chloroquine and pyrimethamine resistant Plasmodium falciparum K1 assessed as reduction in [3H]-hypoxanthine incorporation preincubated for 24 hrs followed by [3H]-hypoxanthine addition measured after 24 hrs by scintillation counting method; assay type: functional, organism-based
[2] = Selectivity index, ratio of CC50 for rat L6 cells to IC50 for Trypanosoma cruzi Tulahuen strain C2C4 amastigote forms infected in rat L6 cells; assay type: toxicity, cell-based; conditions: read-out: Ratio CC50/IC50
[3] = test system: Trypanosoma cruzi; experiment: Antitrypanosomal activity against Trypanosoma cruzi Tulahuen strain C2C4 amastigote forms infected in rat L6 cells after 96 hrs by CPRG/Nonidet reagent based photometric method; assay type: functional, organism-based; conditions: Tulahuen strain C2C4, L6, 96 h
[4] = test system: Leishmania donovani; experiment: Antileishmanial activity against Leishmania donovani MHOM/ET/67/L82 axenic amastigotes after 72 hrs by alamar blue staining based fluorescence assay; assay type: functional, organism-based; conditions: MHOM/ET/67/L82, 72 h
[5] = Selectivity index, ratio of CC50 for rat L6 cells to IC50 for erythrocytic stage of chloroquine and pyrimethamine resistant Plasmodium falciparum K1; assay type: toxicity; conditions: read-out: Ratio CC50/IC50
[6] = test system: Trypanosoma brucei rhodesiense; experiment: Antiprotozoal activity against Trypanosoma brucei rhodesiense STIB900 trypomastigote after 72 hrs by Alamar Blue assay; assay type: functional, organism-based; conditions: STIB900, 72 h
[7] = Cytotoxicity against rat L6 cells after 72 hrs by alamar blue staining based fluorescence assay; assay type: cell-based
[8] = Selectivity index, ratio of CC50 for rat L6 cells to IC50 for Leishmania donovani MHOM/ET/67/L82 axenic amastigotes; assay type: toxicity; conditions: read-out: Ratio CC50/IC50
[9] = Selectivity index, ratio of CC50 for rat L6 cells to IC50 for Trypanosoma brucei rhodesiense STIB900 trypomastigote; assay type: toxicity; conditions: read-out: Ratio CC50/IC50
[10] = target: Sterol 14-alpha demethylase (Trypanosoma cruzi (strain CL Brener)) (UniProt Q7Z1V1); experiment: Binding affinity to Trypanosoma cruzi CYP51 at 5 to 10 uM by 96-well based UV-vis spectroscopic method
Chain of Sterol 14-alpha demethylase (Trypanosoma cruzi (strain CL Brener)) (Q7Z1V1 whole entry, looked up): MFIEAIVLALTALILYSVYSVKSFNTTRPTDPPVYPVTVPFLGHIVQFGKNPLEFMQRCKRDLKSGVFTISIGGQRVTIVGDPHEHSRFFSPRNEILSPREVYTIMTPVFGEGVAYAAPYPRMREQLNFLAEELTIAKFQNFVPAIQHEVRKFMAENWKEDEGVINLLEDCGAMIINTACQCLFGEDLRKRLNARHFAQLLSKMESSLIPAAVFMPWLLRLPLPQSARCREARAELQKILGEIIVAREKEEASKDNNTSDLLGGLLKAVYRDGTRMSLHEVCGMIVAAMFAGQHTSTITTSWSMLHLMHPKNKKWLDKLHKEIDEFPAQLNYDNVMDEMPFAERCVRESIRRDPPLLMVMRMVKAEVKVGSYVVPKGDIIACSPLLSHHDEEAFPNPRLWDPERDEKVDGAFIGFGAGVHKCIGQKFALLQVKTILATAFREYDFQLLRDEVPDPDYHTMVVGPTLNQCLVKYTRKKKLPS

[11] = target: Sterol 14-alpha demethylase (Trypanosoma cruzi (strain CL Brener)) (UniProt Q7Z1V1); experiment: Binding affinity to Trypanosoma cruzi CYP51 by quartz cuvette based UV-vis spectroscopic method
[12] = test system: Mus musculus; experiment: Toxicity in Balb/c mouse infected with Trypanosoma cruzi CL Brener assessed as reduction in mobility at 25 mg/kg, ip bid for 4 days measured during compound dosing; assay type: organism-based; conditions: in vivo, 96 h
[13] = test system: Trypanosoma cruzi; experiment: Potency index, ratio of benznidazole IC50 to test compound IC50 for Trypanosoma cruzi Tulahuen strain C2C4 amastigote forms infected in rat L6 cells; assay type: functional
[14] = test system: Mus musculus; experiment: Toxicity in Balb/c mouse infected with Trypanosoma cruzi CL Brener assessed as weight loss at 25 mg/kg, ip bid for 4 days measured during compound dosing; assay type: organism-based; conditions: in vivo, 96 h
[15] = test system: Trypanosoma cruzi; experiment: Antitrypanosomal activity against luciferase-expressing Trypanosoma cruzi CL Brener infected in Balb/c mouse assessed as reduction in parasitemia at 2.5 mg/kg, ip bid for 4 days by bioluminescence assay relative to control; assay type: functional; set-up: scale not given: the % may be the effect or the level left
[16] = test system: Mus musculus; experiment: Toxicity in Balb/c mouse infected with Trypanosoma cruzi CL Brener assessed as lack of grooming at 25 mg/kg, ip bid for 4 days measured during compound dosing; assay type: organism-based; conditions: in vivo, 96 h
[17] = test system: Mus musculus; experiment: Toxicity in Balb/c mouse infected with Trypanosoma cruzi CL Brener assessed as hunched posture at 25 mg/kg, ip bid for 4 days measured during compound dosing; assay type: organism-based; conditions: in vivo, 96 h

SMILES | IC50 [1] [µM] | selectivity ratio [2] | IC50 [3] [µM] | IC50 [4] [µM] | selectivity ratio [5] | IC50 [6] [µM] | CC50 at 72 h [7] [µM] | selectivity ratio [8] | selectivity ratio [9] | Activity [10] | Activity [11] | Activity [12] | Ratio IC50 [13] | Activity [14] | Activity [15] [%] | Activity [16] | Activity [17]
Fc1ccc(-n2ccc(C(c3ccccc3)n3ccnc3)c2)cc1 (stereo unspecified) | 5.36 | 17 | 6.14 | 31.5 | 19 | 20.4 | 104 | 3 | 5 | – | – | – | – | – | – | – | –
Clc1ccc(C(c2c[nH]cc2-c2cccc3ccccc23)n2ccnc2)c(Cl)c1 (stereo unspecified) | 0.33 | 128 | 0.096 | 1.91 | 37 | 12 | 12.3 | 6 | 1 | – | – | – | – | – | – | – | –
Cc1ccc(C(c2ccn(-c3ccc(Cl)cc3)c2)n2ccnc2)cc1 (stereo unspecified) | 2.53 | 25 | 1.72 | 12.5 | 17 | 53.5 | 42.6 | 3 | – | – | – | – | – | – | – | – | –
FC(F)(F)c1ccc(-c2c[nH]cc2C(c2ccc(Cl)cc2Cl)n2ccnc2)cc1 (stereo unspecified) | 0.14 | 188 | 0.05 | 12 | 67 | 11.3 | 9.4 | – | – | – | – | – | – | – | – | – | –
COc1cc([C@@H]2c3cc4c(cc3[C@H](O)[C@H]3COC(=O)[C@H]23)OCO4)cc(OC)c1OC [PODOFILOX] | – | – | – | – | – | – | 0.007 | – | – | – | – | – | – | – | – | – | –
CSc1ccc(-c2c[nH]cc2C(c2ccc(Cl)cc2Cl)n2ccnc2)cc1 (stereo unspecified) | 0.24 | 168 | 0.043 | 5.12 | 30 | 15.8 | 7.22 | 1 | – | – | – | – | – | – | – | – | –
Clc1ccc(C(c2c[nH]cc2-c2ccc(-c3ccccc3)cc2)n2ccnc2)c(Cl)c1 (stereo unspecified) | > 11 | – | 32.6 | 12.3 | – | 17.7 | > 202 | – | – | – | – | – | – | – | – | – | –
O=C(Cn1ccnc1[N+](=O)[O-])NCc1ccccc1 [BENZNIDAZOLE] | – | – | 1.65 | – | – | – | – | – | – | – | – | – | – | – | – | – | –
Clc1ccc(-c2c[nH]cc2C(c2ccc(Cl)cc2Cl)n2ccnc2)c(Cl)c1 (stereo unspecified) | 0.18 | 290 | 0.034 | 1.19 | 55 | 10.5 | 9.86 | 8 | – | Active | – | – | – | – | – | – | –
Cc1ccc(C(c2ccn(-c3ccc(F)cc3)c2)n2ccnc2)cc1 (stereo unspecified) | 2.17 | 21 | 2.96 | 27.6 | 28 | 15.8 | 60.6 | 2 | 4 | – | – | – | – | – | – | – | –
Clc1ccc(C(c2c[nH]cc2-c2ccc(-c3ccncc3)cc2)n2ccnc2)c(Cl)c1 (stereo unspecified) | 0.29 | 6 | 2.42 | 7.52 | 53 | 9.74 | 15.5 | 2 | 2 | – | – | – | – | – | – | – | –
Cn1cc(-c2ccc(Cl)cc2)c(C(c2ccc(Cl)cc2Cl)n2ccnc2)c1 (stereo unspecified) | 0.17 | 2620 | 0.002 | 4.3 | 31 | 36.5 | 5.23 | 1 | – | Active | Active | Non-Toxic | 825 | Non-Toxic | 98.5 | Non-Toxic | Non-Toxic
c1ccc(C(c2ccn(-c3ccccc3)c2)n2ccnc2)cc1 (stereo unspecified) | 4.14 | 21 | 3.91 | 14.5 | 20 | 35.1 | 80.8 | 6 | 2 | – | – | – | – | – | – | – | –
Fc1ccc(-n2ccc(C(c3ccc(Cl)cc3)n3ccnc3)c2)cc1 (stereo unspecified) | 3.16 | 14 | 3.3 | 10.4 | 15 | 16.9 | 47.5 | 5 | 3 | – | – | – | – | – | – | – | –
CC(C)(C)c1ccc(-c2c[nH]cc2C(c2ccc(Cl)cc2Cl)n2ccnc2)cc1 (stereo unspecified) | 0.38 | 2 | 12.8 | 6.98 | 60 | 41.2 | 22.9 | 3 | – | – | – | – | – | – | – | – | –
O=[N+]([O-])c1ccc(-c2c[nH]cc2C(c2ccc(Cl)cc2Cl)n2ccnc2)cc1 (stereo unspecified) | 0.48 | 5 | 3.22 | 7.82 | 35 | 5.57 | 16.9 | 2 | 3 | – | – | – | – | – | – | – | –
Fc1ccc(C(c2ccn(-c3ccc(Cl)cc3)c2)n2ccnc2)cc1 (stereo unspecified) | 3.98 | 17 | 3.75 | 15.8 | 16 | 36.7 | 63.1 | 4 | 2 | – | – | – | – | – | – | – | –
Nc1nc(N)nc(Nc2ccc([As]3SCC(CO)S3)cc2)n1 (stereo unspecified) [MELARSOPROL] | – | – | – | – | – | 0.0088 | – | – | – | – | – | – | – | – | – | – | –
Clc1ccc(-c2c[nH]cc2C(c2ccc(Cl)cc2Cl)n2ccnc2)cc1 (stereo unspecified) | 0.16 | 275 | 0.035 | 3.77 | 60 | 17.3 | 9.61 | 3 | – | Active | – | – | – | – | – | – | –
Clc1ccc(-c2c[nH]cc2C(c2ccc(Cl)cc2)n2ccnc2)cc1 (stereo unspecified) | 0.13 | 85 | 0.057 | 7.01 | 37 | 15.9 | 4.83 | 1 | – | – | – | – | – | – | – | – | –
Fc1ccc(C(c2ccn(-c3ccc(F)cc3)c2)n2ccnc2)cc1 (stereo unspecified) | 4.44 | 19 | 4.53 | 45.9 | 20 | 43.8 | 87.1 | 2 | 2 | – | – | – | – | – | – | – | –
Clc1ccc(C(c2c[nH]cc2-c2ccc(Cl)c(Cl)c2)n2ccnc2)c(Cl)c1 (stereo unspecified) | 0.14 | 173 | 0.021 | 4.6 | 26 | 12.5 | 3.64 | 1 | – | Active | – | – | – | – | – | – | –
CCCCCCCCCCCCCCCCOP(=O)([O-])OCC[N+](C)(C)C [MILTEFOSINE] | – | – | – | 0.56 | – | – | – | – | – | – | – | – | – | – | – | – | –
N#Cc1ccc(-c2c[nH]cc2C(c2ccc(Cl)cc2Cl)n2ccnc2)cc1 (stereo unspecified) | 0.66 | 2 | 10 | 8.75 | 23 | 11.7 | 15 | 2 | 1 | – | – | – | – | – | – | – | –
